From patent US20190054045A1, “METHODS AND COMPOSITIONS FOR TREATING SKIN CONDITIONS” (priority 2017, published 2019)

How the values were obtained:
burn scar = test: Topical metformin to treat a burn scar on intact skin (patient case); type: in vivo, human; conditions: 250 mg/mL in petrolatum ointment, two times per day
Procedure: A patient with a burn scar from a previously treated skin cancer complaining of a raised red and itchy scar on their chest received topical metformin in petrolatum ointment at 250 mg/mL with directions to apply the lotion to the affected area (red, raised fibrotic scarred skin on chest) two times per day.

surgical defect = test: Topical metformin to treat scarring on open skin (surgical defect, patient case); type: in vivo, human; conditions: topical ointment 250 mg/mL twice a day; within 4 weeks; in comparison to patients healing with topical petrolatum alone; observation by physician
Procedure: A patient with a previous surgical scar from removal of skin cancer with a scalpel received topical metformin ointment at 250 mg/mL with directions to apply the ointment twice a day to the surgical defect until healed (approximately 2-4 weeks).

For CN(C)C(=N)N=C(N)N [metformin], the “scarring of the skin” value (burn scar; after one month) was “further improved”, the “scarring of the skin (redness, itch, softness)” value (burn scar; within 14 days, observation by physician and patient) was “visibly reduced with less redness, itch, and increased softness” and the “scarring and redness of area” value (surgical defect) was “minimal scaring and redness”.
